Assay results reported in US7776845B2, “Pharmaceutical compositions” (Harbor Biosciences, Inc., priority 1999, dated 2010).

Key:
androgen receptor (AR) [1] = molecular target: T1, androgen receptor (AR) (Homo sapiens, UniProt P10275); assay: Anti-adiol activity: modulation of AED-induced AR transactivation (MMTV-CAT assay); type: cell-based; settings: PC-3 cells, pSG5 AR + MMTV-CAT, 50 nM AED, compound at 10, 100 or 1000 nM; FIG. 2B
T1 construct: expressed in transfected cells; host or cells: PC-3 (AR-negative human prostate cancer cell line)
T1 sequence (P10275 1-920): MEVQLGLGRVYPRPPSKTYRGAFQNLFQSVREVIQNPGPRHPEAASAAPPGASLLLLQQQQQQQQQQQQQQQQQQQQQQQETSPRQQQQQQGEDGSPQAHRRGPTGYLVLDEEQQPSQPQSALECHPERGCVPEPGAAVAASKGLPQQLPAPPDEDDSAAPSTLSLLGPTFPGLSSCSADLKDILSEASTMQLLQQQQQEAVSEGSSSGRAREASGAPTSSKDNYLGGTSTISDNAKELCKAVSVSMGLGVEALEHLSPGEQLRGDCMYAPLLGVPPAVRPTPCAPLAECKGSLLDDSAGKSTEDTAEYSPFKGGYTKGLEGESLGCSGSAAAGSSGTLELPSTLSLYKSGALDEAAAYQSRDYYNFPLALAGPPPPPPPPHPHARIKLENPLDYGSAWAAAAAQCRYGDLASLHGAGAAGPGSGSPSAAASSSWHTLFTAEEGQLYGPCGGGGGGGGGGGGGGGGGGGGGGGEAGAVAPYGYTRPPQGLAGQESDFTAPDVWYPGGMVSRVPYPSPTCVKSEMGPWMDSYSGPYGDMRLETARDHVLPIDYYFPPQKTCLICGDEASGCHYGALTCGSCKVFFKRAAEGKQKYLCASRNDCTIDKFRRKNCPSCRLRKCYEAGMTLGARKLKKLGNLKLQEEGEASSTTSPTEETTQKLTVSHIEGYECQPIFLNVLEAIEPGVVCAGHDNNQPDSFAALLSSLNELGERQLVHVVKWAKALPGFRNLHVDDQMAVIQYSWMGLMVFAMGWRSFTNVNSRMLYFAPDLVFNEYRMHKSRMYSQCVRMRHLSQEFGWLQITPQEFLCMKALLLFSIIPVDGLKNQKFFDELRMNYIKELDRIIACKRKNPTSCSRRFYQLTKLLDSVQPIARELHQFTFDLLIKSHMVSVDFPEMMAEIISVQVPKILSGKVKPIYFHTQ
Source text: (§1) AR activity assay. […] Ethynyl derivatized steroids were purchased from Steraloids.

androgen receptor (AR) [2] = molecular target: T1, androgen receptor (AR); assay: Induction of AR-mediated transcriptional activity (MMTV-CAT reporter assay); type: cell-based; settings: PC-3 cells co-transfected with AR plasmid and MMTV-CAT; compounds at 1000, 10 and 0.1 nM; FIG. 1
Experimental: as §1
Induction of AR-mediated transcriptional activity. Steroid compounds were screened for their ability to induce AR transcriptional activity in the AR-negative PC-3 cell line. The results of the CAT assay were obtained by transient co-transfection of AR plasmid and a reporter plasmid (MMTVCAT) containing the CAT gene linked to the androgen response element (ARE). After transfection, the cells were treated with various DHEA derivatives at 1000, 10, and 0.1 nM.

[3] = molecular target: T2, progesterone receptor (PR) (Homo sapiens, UniProt P06401); assay: Steroid hormone specificity: MMTV-CAT reporter with PR in PC-3 cells; settings: PC-3 cells transfected with MMTV-CAT and PR; FIG. 5
T2 sequence (P06401 1-933): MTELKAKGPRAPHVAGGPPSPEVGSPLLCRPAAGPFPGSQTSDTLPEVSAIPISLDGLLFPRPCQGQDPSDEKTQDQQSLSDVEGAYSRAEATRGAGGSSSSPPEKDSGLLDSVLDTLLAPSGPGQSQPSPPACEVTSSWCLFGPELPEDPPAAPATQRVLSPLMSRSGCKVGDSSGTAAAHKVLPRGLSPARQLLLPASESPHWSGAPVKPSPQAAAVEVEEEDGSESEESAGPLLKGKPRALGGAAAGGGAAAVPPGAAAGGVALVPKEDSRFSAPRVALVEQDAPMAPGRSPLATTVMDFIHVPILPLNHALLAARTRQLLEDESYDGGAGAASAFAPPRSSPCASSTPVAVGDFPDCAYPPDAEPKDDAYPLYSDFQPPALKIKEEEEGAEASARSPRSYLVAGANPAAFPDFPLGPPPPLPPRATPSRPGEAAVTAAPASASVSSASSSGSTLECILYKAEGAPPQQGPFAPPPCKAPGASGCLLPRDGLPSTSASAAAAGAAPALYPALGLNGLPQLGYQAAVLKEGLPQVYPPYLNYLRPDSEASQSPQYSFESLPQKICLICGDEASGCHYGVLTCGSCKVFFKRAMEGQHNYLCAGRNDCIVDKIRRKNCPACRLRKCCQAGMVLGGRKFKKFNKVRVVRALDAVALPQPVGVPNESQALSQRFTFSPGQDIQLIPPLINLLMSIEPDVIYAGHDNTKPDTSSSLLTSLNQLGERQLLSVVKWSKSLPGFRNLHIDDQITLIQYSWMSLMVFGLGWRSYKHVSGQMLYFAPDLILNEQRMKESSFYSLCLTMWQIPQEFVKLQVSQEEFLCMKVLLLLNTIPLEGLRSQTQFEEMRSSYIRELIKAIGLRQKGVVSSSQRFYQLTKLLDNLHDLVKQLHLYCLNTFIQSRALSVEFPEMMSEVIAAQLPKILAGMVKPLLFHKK
Experimental: Ethynyl derivatized steroids were purchased from Steraloids. The plasmid pSG5-wild-type AR (pSG5) and mouse mammalian tumor virus (MMTV)-chloramphenicol acetyltransferase (CAT) were constructed as described (6). […] The human prostate cancer cell line, PC-3, and human breast cancer cell line, MCF-7, were maintained in Dulbecco's modified eagles medium (DMEM) containing 10% fetal calf serum. DNA transfection and CAT assays were performed essentially as described (4, 6, 7). Briefly, 4×10^5 cells were plated on 60 mm dishes 24 h before transfection, and the medium was changed to DMEM (without phenol red) with 10% charcoal-stripped fetal calf serum 1 hour before transfection. The cells were transfected using the calcium phosphate precipitation method. The total amount of DNA was adjusted to 8.5 μg with pSG5 in each transfection assay. After transfecting the cells for 24 hours, the transfection medium was removed, fresh DMEM was added and steroids were added. The cells were then incubated in DMEM with steroids for 24 hours. After incubation, the cells were harvested and whole cell extracts were used for CAT assay. Transfection efficiency was normalized by cotransfection with a βgalactosidase vector, which acted as an internal control. The CAT enzyme activity was quantitated by phosphor imager according to the manufacturer's instructions (Molecular Dynamics).

androgen receptor (AR) [4] = molecular target: T1, androgen receptor (AR); assay: Suppression of AED-induced AR transcriptional activity in the presence of HF (MMTV-CAT assay); type: cell-based; settings: PC-3 cells, 1 μM HF, 50 nM AED; FIG. 4
Source text: as §1

| Compound | effect on AED-mediated AR transcriptional activity (androgen receptor (AR) [1]) | androgenic activity (AR-mediated CAT gene transactivation) (androgen receptor (AR) [2]) | PR activity [3] | suppression of AED-mediated AR transcription activity by HF (androgen receptor (AR) [4]) |
| --- | --- | --- | --- | --- |
| 3β,17β-diacetoxy-androst-5-ene-7α,17β-diol [Compound 13] | either activation of AED-mediated AR transcriptional activity or they have no effect | little androgenic activity | – | – |
| 17-methyl-marrianolic acid [Compound 18] | either activation of AED-mediated AR transcriptional activity or they have no effect | little androgenic activity | – | – |
| CO[C@H]1CC[C@@]2(C)C(=CC(=O)[C@H]3[C@@H]4CC[C@H](O)[C@@]4(C)CC[C@@H]32)C1 [Compound 15, 3β-methoxy-17β-hydroxy-androst-5-ene-7-one] | either activation of AED-mediated AR transcriptional activity or they have no effect | little androgenic activity | – | – |
| 3β-methoxy-androst-5-ene-?,17β-diol [Compound 16] | – | little androgenic activity | – | – |
| C#C[C@]1(O)CCC2C3CCc4cc(O)ccc4C3CC[C@@]21C (stereo partly drawn) [Compound 4, 1, 3, 5(10)-estratriene-17α-ethynyl-3β,17β-diol] | – | – | some weak PR activity | – |
| C[C@]12CC[C@H]3[C@@H](C(=O)C=C4C[C@@H](O)CC[C@@]43C)[C@@H]1CC[C@@H]2O [Compound 22, 7-oxo-androstene-3β,17β-diol] | either activation of AED-mediated AR transcriptional activity or they have no effect | little androgenic activity | – | – |
| COC(=O)O[C@H]1CC[C@@]2(C)C(=CC(=O)[C@@H]3[C@@H]2CC[C@]2(C)C(=O)CC[C@@H]32)C1 [Compound 10, 3β,-methylcarbonate-androst-5-en-7,17-dione] | antagonized AED-mediated AR transcriptional activity | little androgenic activity | – | – |
| CC(C)(O)C(=O)Nc1ccc([N+](=O)[O-])c(C(F)(F)F)c1 [HF, hydroxyflutamide] | – | – | – | about 40% |
| C#C[C@]1(O)CCC2C3CC=C4C[C@@H](O)CC[C@]4(C)C3CC[C@@]21C (stereo partly drawn) [Compound 6, 17α-ethynyl-androst-5-ene-3β,17β-diol] | antagonized AED-mediated AR transcriptional activity | little androgenic activity | – | – |
| C[C@]12C[C@H](O)[C@H]3[C@@H](CC=C4C[C@@H](O)CC[C@@]43C)[C@@H]1CC[C@@H]2O [Compound 5, androst-5-ene-3β,11β,17β-triol] | either activation of AED-mediated AR transcriptional activity or they have no effect | little androgenic activity | – | – |
| C[C@]12CC[C@H]3[C@@H](CC=C4C[C@@H](O)CC[C@@]43C)[C@@H]1CC(=O)[C@@H]2O [Compound 8, 3β,17β-dihydroxy-androst-5-en-16-one] | antagonized AED-mediated AR transcriptional activity | little androgenic activity | – | – |
